For nine molecules, MIC, IC50 and inhibition results are on record in ChEMBL document CHEMBL3758177, “Synthesis and biological evaluation of novel phosphoramidate derivatives of coumarin as chitin synthase inhibitors and antifungal agents” (Eur J Med Chem, 2016).

Test [1] relates to Aspergillus fumigatus. Briefly: Antifungal activity against Aspergillus fumigatus GIMCC 3.19 after 24 hrs by two-fold serial dilution method. It counts as functional. The conditions noted are these: GIMCC 3.19, 24 h.
Test [2] in a line: Inhibition of Candida tropicalis ATCC 750 chitin synthase using UDP-GlcNAc as substrate after 60 mins by microplate reader method.
For test [3], the system named is Staphylococcus aureus. Briefly: Antibacterial activity against Staphylococcus aureus ATCC 25923 after 24 hrs by two-fold serial dilution method. It counts as functional. The conditions noted are these: ATCC 25923, 24 h.
For test [4], the system named is Candida albicans. Description: Antifungal activity against Candida albicans CMCC 76615 after 24 hrs by two-fold serial dilution method. The conditions noted are these: CMCC 76615, 24 h. The format is functional.
The subject of test [5] is Pseudomonas aeruginosa. Briefly: Antibacterial activity against Pseudomonas aeruginosa ATCC 9027 after 24 hrs by two-fold serial dilution method. The format is functional. The conditions noted are these: ATCC 9027, 24 h.
The subject of test [6] is Candida tropicalis. Description: Inhibition of Candida tropicalis ATCC 750 chitin synthase using UDP-GlcNAc as substrate at 300 ug/ml after 60 mins by microplate reader method.
The test system of test [7] is Aspergillus flavus. Description: Antifungal activity against Aspergillus flavus ATCC 16870 after 24 hrs by two-fold serial dilution method. The conditions noted are these: ATCC 16870, 24 h. It counts as functional.
The subject of test [8] is Proteus vulgaris. Briefly: Antibacterial activity against Proteus vulgaris ATCC 8427 after 24 hrs by two-fold serial dilution method. The format is functional. The conditions noted are these: ATCC 8427, 24 h.
Test [9] has as its system Escherichia coli. Briefly: Antibacterial activity against Escherichia coli JM 109 after 24 hrs by two-fold serial dilution method. It counts as functional. The conditions noted are these: JM 109, 24 h.
Test [10] has as its system Staphylococcus aureus. Description: Antibacterial activity against Methicillin-resistant Staphylococcus aureus N 315 after 24 hrs by two-fold serial dilution method. The format is functional. The conditions noted are these: N 315, 24 h.
Test [11] relates to Bacillus spizizenii. Briefly: Antibacterial activity against Bacillus subtilis ATCC 6633 after 24 hrs by two-fold serial dilution method. The format is functional. The conditions noted are these: ATCC 6633, 24 h.
For test [12], the system named is Cryptococcus neoformans. Description: Antifungal activity against Cryptococcus neoformans ATCC 32719 after 24 hrs by two-fold serial dilution method. It counts as functional. The note with it: ATCC 32719, 24 h.

Values after ≈ are worked out from the molar mass of the structure shown.

In general, MIC refers to the lowest concentration that inhibits growth of the organism. A lower MIC goes with a more susceptible organism. In general, IC50 refers to the concentration that gives 50% inhibition. By inhibition is commonly meant the share of the control response that was lost under treatment. High values mean a response far below the control, low ones a response near the control.

As to `COC(=O)C(C)NP(=O)(OCCN(C)c1cc(=O)oc2c(C)cccc12)Oc1ccccc1` (configuration not stated), the MIC turned out to be 32 µg/mL (≈ 67.4 µM) in [1]; 64 µg/mL (≈ 135 µM) in test [3]; 64 µg/mL (≈ 135 µM) in test [4]; 256 µg/mL (≈ 540 µM) in test [5]; 64 µg/mL (≈ 135 µM) in [7]; 128 µg/mL (≈ 270 µM) in [8]. Also, the minimal inhibitory concentration (MIC) in [9] was 128 µg/mL (≈ 270 µM); in [10] it was 128 µg/mL (≈ 270 µM); in [11], 512 µg/mL (≈ 1080 µM); in test [12], 128 µg/mL (≈ 270 µM). In test [2], this molecule gave an IC50 of 220 µM. Further, the inhibition in test [6] came out at 64%.

With `CN[C@@H]1[C@H](O[C@H]2[C@H](O[C@H]3[C@H](O)[C@@H](O)[C@H](N=C(N)N)[C@@H](O)[C@@H]3N=C(N)N)O[C@@H](C)[C@]2(O)C=O)O[C@@H](CO)[C@H](O)[C@H]1O` [STREPTOMYCIN], the minimum inhibitory concentration (MIC) in test [3] is 4 µg/mL (≈ 6.88 µM); in test [5] it was 4 µg/mL (≈ 6.88 µM); in test [8] it was 1 µg/mL (≈ 1.72 µM); in test [9], 4 µg/mL (≈ 6.88 µM); in test [10] it was 4 µg/mL (≈ 6.88 µM); in test [11], 4 µg/mL (≈ 6.88 µM).

Turning to `COC(=O)C(Cc1ccccc1)NP(=O)(OCCN(C)c1cc(=O)oc2ccc(C)cc12)Oc1ccccc1` (configuration not stated), the MIC turned out to be 128 µg/mL (≈ 232 µM) in test [1]; 64 µg/mL (≈ 116 µM) in test [3]; 64 µg/mL (≈ 116 µM) in test [4]; 256 µg/mL (≈ 465 µM) in test [5]; 64 µg/mL (≈ 116 µM) in [7]; 16 µg/mL (≈ 29.1 µM) in test [8]. Also, the MIC worked out at 64 µg/mL (≈ 116 µM) in test [9], 128 µg/mL (≈ 232 µM) in test [10], 64 µg/mL (≈ 116 µM) in test [11] and 64 µg/mL (≈ 116 µM) in test [12]. Moreover, in [6], the inhibition came to 43%.

As to `COC(=O)C(NP(=O)(OCCN(C)c1cc(=O)oc2ccccc12)Oc1ccccc1)C(C)C` (configuration not stated), the MIC in [1] stood at 64 µg/mL (≈ 131 µM); in test [3] it was 256 µg/mL (≈ 524 µM); in test [4], 32 µg/mL (≈ 65.5 µM); in [5] it was 512 µg/mL (≈ 1050 µM); in test [7], 16 µg/mL (≈ 32.8 µM); in test [8], 512 µg/mL (≈ 1050 µM). Moreover, the MIC in [9] was found to be 512 µg/mL (≈ 1050 µM); in [10] it was 256 µg/mL (≈ 524 µM); in test [11], 128 µg/mL (≈ 262 µM); in [12], 64 µg/mL (≈ 131 µM). This molecule also returned an IC50 in [2] of 380 µM. Further, the inhibition in test [6] turned out to be 54%.

In the case of `COC(=O)CNP(=O)(OCCN(C)c1cc(=O)oc2cc(C)ccc12)Oc1ccccc1` (configuration not stated), the MIC stood at 32 µg/mL (≈ 69.5 µM) in [1]; 256 µg/mL (≈ 556 µM) in [3]; 32 µg/mL (≈ 69.5 µM) in test [4]; 512 µg/mL (≈ 1110 µM) in test [5]; 64 µg/mL (≈ 139 µM) in test [7]; 512 µg/mL (≈ 1110 µM) in test [8]. Also, the MIC in test [9] turned out to be 128 µg/mL (≈ 278 µM); in test [10], 256 µg/mL (≈ 556 µM); in [11], 512 µg/mL (≈ 1110 µM); in test [12], 16 µg/mL (≈ 34.8 µM). In test [2], the IC50 came out at 320 µM. In test [6], the inhibition amounted to 59%.

In the case of `NC(=O)OC[C@H](O)[C@@H](O)[C@H](N)C(=O)N[C@H](C(=O)O)[C@H]1O[C@@H](n2cc(CO)c(=O)[nH]c2=O)[C@H](O)[C@@H]1O` [POLYOXIN B], the MIC came to 64 µg/mL (≈ 126 µM) in test [1], 32 µg/mL (≈ 63.1 µM) in test [4], 64 µg/mL (≈ 126 µM) in test [7] and 8 µg/mL (≈ 15.8 µM) in test [12]. The IC50 in [2] came out at 160 µM. The molecule also came in with an inhibition in [6] of 82%.

`COC(=O)C(NP(=O)(OCCN(C)c1cc(=O)oc2cc(C)ccc12)Oc1ccccc1)C(C)C` (configuration not stated): the MIC in test [1] was found to be 128 µg/mL (≈ 255 µM); in test [3], 64 µg/mL (≈ 127 µM); in test [4] it was 128 µg/mL (≈ 255 µM); in [5], 64 µg/mL (≈ 127 µM); in [7], 128 µg/mL (≈ 255 µM); in test [8] it was 128 µg/mL (≈ 255 µM). Moreover, the MIC was 256 µg/mL (≈ 509 µM) in test [9], 128 µg/mL (≈ 255 µM) in [10], 32 µg/mL (≈ 63.7 µM) in test [11] and 128 µg/mL (≈ 255 µM) in [12]. Moreover, the inhibition in [6] came to 38%.

As for `COC(=O)C(NP(=O)(OCCN(C)c1cc(=O)oc2ccc(C)cc12)Oc1ccccc1)C(C)C` (configuration not stated), the minimal inhibitory concentration (MIC) amounted to 128 µg/mL (≈ 255 µM) in [1]; 16 µg/mL (≈ 31.8 µM) in test [3]; 64 µg/mL (≈ 127 µM) in test [4]; 16 µg/mL (≈ 31.8 µM) in test [5]; 128 µg/mL (≈ 255 µM) in [7]; 32 µg/mL (≈ 63.7 µM) in test [8]. Besides, the MIC stood at 16 µg/mL (≈ 31.8 µM) in test [9], 32 µg/mL (≈ 63.7 µM) in test [10], 16 µg/mL (≈ 31.8 µM) in [11] and 32 µg/mL (≈ 63.7 µM) in [12]. In [6], the inhibition amounted to 41%.

`COC(=O)C(NP(=O)(OCCN(C)c1cc(=O)oc2c(C)cccc12)Oc1ccccc1)C(C)C` (configuration not stated): the minimal inhibitory concentration (MIC) is 128 µg/mL (≈ 255 µM) in [1]; 128 µg/mL (≈ 255 µM) in test [3]; 128 µg/mL (≈ 255 µM) in [4]; 256 µg/mL (≈ 509 µM) in test [5]; 128 µg/mL (≈ 255 µM) in test [7]; 256 µg/mL (≈ 509 µM) in [8]. The MIC worked out at 256 µg/mL (≈ 509 µM) in test [9], 32 µg/mL (≈ 63.7 µM) in test [10], 32 µg/mL (≈ 63.7 µM) in test [11] and 128 µg/mL (≈ 255 µM) in test [12]. The same molecule registered an inhibition in [6] of 45%.
